Common to all, as to assay: relative viability (nuclei count vs DMSO), 5 days (fraction); higher = more cells survive
Compound in assay [1]: O=C(O)c1ccc2c(c1)nc(Nc1cccc(Cl)c1)c1ccncc12 [Silmitasertib] + CC1(C)CCC(c2ccc(Cl)cc2)=C(CN2CCN(c3ccc(C(=O)NS(=O)(=O)c4ccc(N[C@H](CCN5CCOCC5)CSc5ccccc5)c(S(=O)(=O)C(F)(F)F)c4)cc3)CC2)C1 [Navitoclax] (partner 0.5 µM)
The method in brief: (§1)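 Relative viability divides the nuclei count in treated wells by that in vehicle wells. Lung cancer cell lines were seeded in 1536-well plates, dosed by pin tool the next day, and fixed and stained after 5 days in one step with final 0.05% Triton X-100, 1% formaldehyde and 1 ug/ml Hoechst. Dosing was a single drug or a fixed anchor-drug dose plus five library-drug doses (not always all listed) in √10 steps, and values are medians of duplicate plates imaged at 4×.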

Compound in assay [2]: O=C(O)c1ccc2c(c1)nc(Nc1cccc(Cl)c1)c1ccncc12 [Silmitasertib] + CS(=O)(=O)CCNCc1ccc(-c2ccc3ncnc(Nc4ccc(OCc5cccc(F)c5)c(Cl)c4)c3c2)o1 [Lapatinib] (partner 2 µM)
The gist of the method:
as §1

Compound in assay [3]: O=C(O)c1ccc2c(c1)nc(Nc1cccc(Cl)c1)c1ccncc12 [Silmitasertib] + CC(=O)Nc1cccc(-n2c(=O)n(C3CC3)c(=O)c3c(Nc4ccc(I)cc4F)n(C)c(=O)c(C)c32)c1 [Trametinib] (partner 0.02 µM)
The gist of the method: as §1

Compound in assay [4]: O=C(O)c1ccc2c(c1)nc(Nc1cccc(Cl)c1)c1ccncc12 [Silmitasertib] + COc1cc2c(Oc3ccc(NC(=O)C4(C(=O)Nc5ccc(F)cc5)CC4)cc3F)ccnc2cc1OCCCN1CCOCC1 [Foretinib] (partner 0.25 µM)
The gist of the method:
as §1

Compound in assay [5]: O=C(O)c1ccc2c(c1)nc(Nc1cccc(Cl)c1)c1ccncc12 [Silmitasertib] + Cc1nc(Nc2ncc(C(=O)Nc3c(C)cccc3Cl)s2)cc(N2CCN(CCO)CC2)n1 [Dasatinib] (partner 0.075 µM)
The gist of the method: as §1

As to NCI-H2085, the relative viability amounted to 1.15 in assay [1] (first compound 0.04 µM); 0.942 in assay [1] (first compound 0.4 µM); 0.933 in assay [1] (first compound 1.265 µM); 0.874 in assay [1] (first compound 4 µM); 0.916 in assay [2] (first compound 0.04 µM); 0.509 in assay [2] (first compound 0.4 µM). Further, the relative viability in assay [2] (first compound 1.265 µM) was 0.674; in assay [2] (first compound 4 µM), 0.507; in assay [3] (first compound 0.04 µM), 0.641; in assay [3] (first compound 0.4 µM), 0.454; in assay [3] (first compound 1.265 µM), 0.423; in assay [3] (first compound 4 µM), 0.386. Besides, the relative viability in assay [4] (first compound 0.04 µM) came out at 0.918; in assay [4] (first compound 1.265 µM), 0.952; in assay [4] (first compound 4 µM), 0.861; in assay [5] (first compound 0.04 µM), 0.253; in assay [5] (first compound 0.4 µM) it was 0.233; in assay [5] (first compound 1.265 µM), 0.245. In addition, the relative viability in assay [5] (first compound 4 µM) worked out at 0.265.

For NCI-H2087, the relative viability in assay [1] (first compound 0.04 µM) was 1.11; in assay [1] (first compound 0.4 µM) it was 0.855; in assay [1] (first compound 1.265 µM) it was 0.689; in assay [1] (first compound 4 µM), 0.319; in assay [2] (first compound 0.04 µM), 0.924; in assay [2] (first compound 0.4 µM) it was 0.753. In addition, the relative viability in assay [2] (first compound 1.265 µM) turned out to be 0.727; in assay [2] (first compound 4 µM) it was 0.377; in assay [3] (first compound 0.04 µM), 0.26; in assay [3] (first compound 0.4 µM) it was 0.186; in assay [3] (first compound 1.265 µM) it was 0.135; in assay [3] (first compound 4 µM), 0.134. Further, the relative viability in assay [4] (first compound 0.04 µM) was 1.22; in assay [4] (first compound 1.265 µM) it was 0.741; in assay [4] (first compound 4 µM) it was 0.806; in assay [5] (first compound 0.04 µM), 0.828; in assay [5] (first compound 1.265 µM), 0.695; in assay [5] (first compound 4 µM), 0.308.

With NCI-H2126, the relative viability in assay [1] (first compound 0.04 µM) was 0.897; in assay [1] (first compound 0.4 µM), 0.847; in assay [1] (first compound 1.265 µM), 0.81; in assay [1] (first compound 4 µM) it was 0.745; in assay [2] (first compound 0.04 µM), 0.803; in assay [2] (first compound 0.4 µM) it was 0.759. In addition, the relative viability in assay [2] (first compound 1.265 µM) amounted to 0.691; in assay [2] (first compound 4 µM), 0.544; in assay [3] (first compound 0.04 µM), 0.578; in assay [3] (first compound 0.4 µM) it was 0.521; in assay [3] (first compound 1.265 µM) it was 0.467; in assay [3] (first compound 4 µM), 0.501. In addition, the relative viability stood at 1.21 in assay [4] (first compound 0.04 µM); 1.03 in assay [4] (first compound 1.265 µM); 1.07 in assay [4] (first compound 4 µM); 0.602 in assay [5] (first compound 0.04 µM); 0.584 in assay [5] (first compound 0.4 µM); 0.573 in assay [5] (first compound 1.265 µM). In assay [5] (first compound 4 µM), the relative viability stood at 0.539.

NCI-H2170: the relative viability is 0.614 in assay [1] (first compound 0.04 µM); 0.339 in assay [1] (first compound 0.4 µM); 0.446 in assay [1] (first compound 1.265 µM); 0.433 in assay [1] (first compound 4 µM); 0.292 in assay [2] (first compound 0.04 µM); 0.258 in assay [2] (first compound 0.4 µM). Further, the relative viability was 0.276 in assay [2] (first compound 1.265 µM); 0.274 in assay [2] (first compound 4 µM); 0.918 in assay [3] (first compound 0.04 µM); 0.661 in assay [3] (first compound 0.4 µM); 0.833 in assay [3] (first compound 1.265 µM); 0.821 in assay [3] (first compound 4 µM). The relative viability was 1.01 in assay [4] (first compound 0.04 µM); 0.881 in assay [4] (first compound 0.4 µM); 0.916 in assay [4] (first compound 1.265 µM); 1.01 in assay [4] (first compound 4 µM); 0.61 in assay [5] (first compound 0.04 µM); 0.502 in assay [5] (first compound 0.4 µM). The relative viability in assay [5] (first compound 1.265 µM) turned out to be 0.676; in assay [5] (first compound 4 µM), 0.598.

Regarding NCI-H2228, the relative viability in assay [1] (first compound 0.04 µM) was 0.981; in assay [1] (first compound 0.4 µM) it was 0.579; in assay [1] (first compound 1.265 µM), 0.586; in assay [1] (first compound 4 µM), 1.16; in assay [2] (first compound 0.04 µM), 1.16; in assay [2] (first compound 0.4 µM), 0.944. Moreover, the relative viability in assay [2] (first compound 1.265 µM) is 1.03; in assay [2] (first compound 4 µM), 1; in assay [3] (first compound 0.04 µM) it was 0.554; in assay [3] (first compound 0.4 µM) it was 0.375; in assay [3] (first compound 1.265 µM), 0.456; in assay [3] (first compound 4 µM) it was 0.464. For the same cell line, the relative viability was 1 in assay [4] (first compound 0.04 µM); 0.926 in assay [4] (first compound 1.265 µM); 1.1 in assay [4] (first compound 4 µM); 0.517 in assay [5] (first compound 0.04 µM); 0.523 in assay [5] (first compound 1.265 µM); 0.528 in assay [5] (first compound 4 µM).

On to NCI-H2347, for which the relative viability in assay [1] (first compound 0.04 µM) was 0.891; in assay [1] (first compound 0.4 µM) it was 0.692; in assay [1] (first compound 1.265 µM) it was 0.745; in assay [1] (first compound 4 µM) it was 0.665; in assay [2] (first compound 0.04 µM), 0.944; in assay [2] (first compound 0.4 µM), 0.77. In addition, the relative viability in assay [2] (first compound 1.265 µM) was determined as 0.759; in assay [2] (first compound 4 µM), 0.508; in assay [3] (first compound 0.04 µM) it was 0.264; in assay [3] (first compound 0.4 µM), 0.263; in assay [3] (first compound 1.265 µM), 0.277; in assay [3] (first compound 4 µM) it was 0.266. Further, the relative viability in assay [4] (first compound 0.04 µM) was determined as 0.612; in assay [4] (first compound 0.4 µM), 0.762; in assay [4] (first compound 1.265 µM), 0.885; in assay [4] (first compound 4 µM), 0.561; in assay [5] (first compound 0.04 µM), 0.581; in assay [5] (first compound 1.265 µM), 0.313. The relative viability in assay [5] (first compound 4 µM) was 0.254.

Regarding NCI-H2405, the relative viability in assay [1] (first compound 0.04 µM) is 1.26; in assay [1] (first compound 0.4 µM), 0.68; in assay [1] (first compound 1.265 µM), 0.596; in assay [1] (first compound 4 µM), 0.706; in assay [2] (first compound 0.04 µM), 1.51; in assay [2] (first compound 0.4 µM) it was 0.903. The relative viability in assay [2] (first compound 1.265 µM) was determined as 0.844; in assay [2] (first compound 4 µM), 0.562; in assay [3] (first compound 0.04 µM), 0.681; in assay [3] (first compound 0.4 µM), 0.605; in assay [3] (first compound 1.265 µM) it was 0.619; in assay [3] (first compound 4 µM), 0.775. Further, the relative viability was determined as 1.02 in assay [4] (first compound 0.04 µM); 0.887 in assay [4] (first compound 0.4 µM); 0.967 in assay [4] (first compound 1.265 µM); 0.964 in assay [4] (first compound 4 µM); 0.221 in assay [5] (first compound 0.04 µM); 0.209 in assay [5] (first compound 0.4 µM). For the same cell line, the relative viability in assay [5] (first compound 1.265 µM) came out at 0.222; in assay [5] (first compound 4 µM), 0.236.
